# Laboratory results as given in patent US6160008A, “Pharmaceutical compositions comprising S-alkylisothiouronium derivatives” (priority 1996, dated 2000).
# “Also recorded” adds a separate entry of the source. Where two headings read alike, the source gives them in different places.
# Assays:
# [1] = in vivo, cited from earlier work
# [2] = tested on: cardiovascular system of dogs; assay: Effect on the cardiovascular system of dogs (FIGS. 11-13); format: in vivo; conditions: i.v.
# Procedure: In the following tests, the effect of S-ethylisothiouronium diethylphosphate was studied on the cardiovascular system of dogs. AP was measured by two methods: it was registered on the tail artery by means of a piezosensor (Ugo Bazile pressure gauge) and in the thigh artery by a catheter filled with heparin. Electrocardiogram was registered in three standard branches.
# S-ethylisothiouronium diethylphosphate was injected at doses of 1 mg/kg (n=5), 5 mg/kg (n=18), and 100 mg/kg (n=8). […] The development of a bradycardiac effect was noted which started already on the first minutes after the injection, reaching on the average 25-30% of the initial level. Maximal bradycardiac value was observed on the 30th-40th minutes after the experiment started and maintained till the 60th minute of the observation.
# Due to this fact the study was carried out separately for normotonics and hypotonics.
# [3] = tested on: acid-base balance and gas composition of arterial blood; assay: Acid-base balance and gas composition of arterial blood in hemorrhagic shock (Table 6); format: in vivo, cats
# Procedure: The influence of S-ethylisothiouronium diethylphosphate on the major indices of the blood acid-base state (AAS) and gas content in hemorrhagic shock was studied at a dose of 5 mg/kg. The cats were narcotized intraperitoneally with pentobarbital sodium (nembutal) at a dose of 40 mg/kg. The blood loss was caused by blood-letting from the common carotid artery in an amount of 3.2% of the animal body mass, which approximately corresponds to 45-47% of the blood circulation volume. The blood-letting was carried out during 3-5 minutes. Tension characteristics of oxygen and carbon dioxide in arterial (PaO2, PaCO2) and mixed venous (PvO2, PvCO2) blood, pHa and pH were studied by Astrup micromethod. The hemoglobin content (Hb) was determined by the cianohemoglobin method. Bicarbonate ion content /HCO3 was calculated with the help of the Severinghause ruler. Calculations were carried out on the CM-1403-02 computer in the Forhtran language program. Indices of the acid-base balance and blood gas content were studied in the initial state, on the 30th minute after acute bleeding as well as on 2nd, 10th, 30th, and 60th minute after the medicine injection. The substance was injected singly intravenously on the 30th minute after the blood-letting.
# In the test group (n=6), S-ethylisothiouronium diethylphosphate was injected at a dose of 5 mg/kg.
# [4] = tested on: acute arterial hypotension, caused by prazosin; assay: Acute arterial hypotension caused by prazosin (Table 3); format: in vivo, cats; conditions: for AP / HF / Respiratory contraction frequency: 5 mg/kg i.v. after prazosin 1 mg/kg
# Procedure: It was of interest to study the influence of S-ethylisothiouronium diethylphosphate the in case of hypotension caused by the injection of a known α1-adreno blocker, namely prazosin. Prazosin was injected singly intravenously at a dose of 1 mg/kg.
# arterial blood pressure = assay: Clinical testing under spinal epidural anesthesia; format: in vivo, patients; conditions: urological operations
# Procedure: This experiment was conducted at the General Anesthesia Department of the First Republican Hospital of Moldova. The goal of this clinical study was to estimate the ability of Difetur to act as a hypertensive drug, compared to the known adrenergic drug--ephedrine. The experiments were performed on one hundred patients, underwent urological operations under spinal epidural anesthesia, their age being between 20 and 80. The following findings are presented in view of Difetur: […]
# [5] = tested on: acute arterial hypotension, caused by the hexamethonium administration; assay: Acute arterial hypotension caused by hexamethonium (Table 5); format: in vivo, cats; conditions: for AP / HF: 5 mg/kg i.v. after hexamethonium 10 mg/kg
# Procedure: The influence of S-ethylisothiouronium diethylphosphate on the background of arterial hypotension caused by a known ganglion blocker-hexamethonium has been studied in cats. Hexamethonium was injected intra- venously at a dose of 10 mg/kg. Vagus and schiatic nerve stimulation was carried out by electrical pulsator with the above-threshold rectangular pulse current having a duration of 1 msec, irritation time of 10 sec, and frequency of 20 pulses/sec (peripheral section of the vagus nerve), and frequency of 300 pulses/sec (central end of the schiatic nerve).
# [6] = 5 mg/kg i.v., 10 min after injection
# [7] = 5 mg/kg i.v., 30 min after injection
# [8] = 5 mg/kg i.v., 60 min after injection
smiles,measurement,setting,value
CCSC(=N)N [S-ethylisothiouronium diethylphosphate],Radioprotective effect in words,[1],radioprotective effect
same,Radioprotective effect in words,[1]; listed as Difetur,distinct radioprotective effect
same,Electrocardiogram,[2]; all doses,did not reveal any pathological changes
same,"Bradycardiac effect, relative to the initial level",[2]; dogs,25-30%
same,Optimal dose,[2]; dogs,5 to 10 mg/kg
same,Hypertensive effect in words,"[2]; dogs, all doses",does not cause secondary hypotension; also recorded: greater in hypotensive than in normotensive animals; also recorded: pronounced hypertensive effect at all the doses used
same,Hypertensive effect in words,"[2]; dogs, all doses, listed as S-ethylisothiouroniumdiethylphosphate",the hypertensive reaction in dogs with low arterial pressure is stronger and more prolonged
same,"Bicarbonate ion content increase, arterial blood","[3]; 5 mg/kg i.v., 10th minute",5%
same,"Bicarbonate ion content increase, arterial blood","[3]; 5 mg/kg i.v., 30th minute",16%
same,Bicarbonate ion content (HCO3 a),[3]; [6],15.583 ± 1.333 mmol/L
same,Buffer bases (Bba),[3]; [6],34.150 ± 1.364 mmol/L
same,Buffer bases shift (Bea),[3]; [6],-7.866 ± 1.095 mmol/L
same,Carbonic acid gas tension (PaCO2),[3]; [6],28.616 ± 2.858 mm Hg
same,Oxygen tension (PaO2),[3]; [6],94.483 ± 6.012
same,pHa,[3]; [6],7.252±0.018
same,Decrease of partial pressure of carbon dioxide (arterial and venous blood),"[3]; 5 mg/kg i.v., 10 minute, vs 30th minute after blood letting",9%
same,Bicarbonate ion content (HCO3 a),[3]; [7],17.083 ± 1.065 mmol/L
same,Buffer bases (Bba),[3]; [7],34.966 ± 3.534 mmol/L
same,Buffer bases shift (Bea),[3]; [7],-8.016 ± 1.436 mmol/L
same,Carbonic acid gas tension (PaCO2),[3]; [7],31.083 ± 1.933 mm Hg
same,Oxygen tension (PaO2),[3]; [7],95.466 ± 7.144
same,pHa,[3]; [7],7.310±0.064
same,Bicarbonate ion content (HCO3 a),[3]; [8],15.900 ± 3.033 mmol/L
same,Buffer bases (Bba),[3]; [8],32.733 ± 5.616 mmol/L
same,Buffer bases shift (Bea),[3]; [8],-9.450 ± 3.903 mmol/L
same,Carbonic acid gas tension (PaCO2),[3]; [8],35.217 ± 7.339 mm Hg
same,Oxygen tension (PaO2),[3]; [8],85.550 ± 6.575
same,pHa,[3]; [8],7.208 ± 0.036
same,Effect on acid-base balance and blood gases in words,"[3]; arterial blood, hemorrhagic shock","does not influence negatively the acid-base balance; also recorded: corrects the metabolic acidosis caused by the loss of blood; also recorded: it had the tendency to increase in the arterial blood, and to decrease in the venous blood"
same,AP,[4]; 2 min,135.0 ± 5.6 mm Hg
same,HF,[4]; 2 min,152.4 ± 9.4 per min.
same,Respiratory contraction frequency,[4]; 2 min,14.6 ± 3.9 min⁻¹
same,AP,[4]; 15 min,118.8 ± 10.3 mm Hg
same,HF,[4]; 15 min,146.4 ± 5.6 per min.
same,Respiratory contraction frequency,[4]; 15 min,12.4 ± 3.0 min⁻¹
same,AP,[4]; 30 min,116.3 ± 4.8 mm Hg
same,HF,[4]; 30 min,144.0 ± 5.0 per min.
same,Respiratory contraction frequency,[4]; 30 min,11.8 ± 2.3 min⁻¹
same,AP,[4]; 60 min,110.0 ± 7.4 mm Hg
same,HF,[4]; 60 min,135.6 ± 7.0 per min.
same,Respiratory contraction frequency,[4]; 60 min,11.0 ± 1.0 min⁻¹
same,AP increase,"[4]; 5 mg/kg i.v. after prazosin, 2nd minute",29 mm Hg
same,AP above the level on the 5th minute after blocker,"[4]; 5 mg/kg i.v. after prazosin, 15th minute",11.8%
same,AP above the level on the 5th minute after blocker,"[4]; 5 mg/kg i.v. after prazosin, 30th minute",9.4%
same,Effect under α1-adreno blockade in words,[4]; after prazosin,Statistically significant changes of HR and respiratory movement frequency were not observed; also recorded: increases AP also on the background of α1-adreno blockers though with a lower duration than without them; also recorded: retain its activity in conditions of alpha-adrenergic blockade
same,Duration of hypertensive action,arterial blood pressure,40 to 60 min
same,Time until blood pressure attains the initial value,arterial blood pressure,≤ 90 min
same,Clinical safety findings,arterial blood pressure; listed as Difetur,No cases of secondary hypertension were observed; also recorded: No complications of allergic type of the blood circulation or respiration were observed
same,Effect on patient's blood pressure in words,arterial blood pressure; listed as Difetur,prevented the decrease in the patient's blood pressure; also recorded: blood pressure of the patients remained stable; also recorded: rapid and prolonged effect on arterial blood pressure
same,AP,[5]; 2 min,152.0 ± 4.6 mm Hg
same,HF,[5]; 2 min,120.0 ± 12.0 per min.
same,AP,[5]; 15 min,147.0 ± 7.8 mm Hg
same,HF,[5]; 15 min,105.6 ± 11.6 per min.
same,AP,[5]; 30 min,146.8 ± 4.8 mm Hg
same,HF,[5]; 30 min,109.2 ± 11.1 per min.
same,AP,[5]; 60 min,143.0 ± 7.2 mm Hg
same,HF,[5]; 60 min,108.0 ± 15.8 per min.
same,AP increase,"[5]; 5 mg/kg i.v. after hexamethonium, 2nd minute",61 mm Hg
same,Effect under ganglion blockade in words,[5]; after hexamethonium,"Respiratory rate did not change; also recorded: HR changed to the direction of bradycardia, however, those changes were not statistically significant; also recorded: ganglion blocking properties are completely retained; also recorded: quickly restores the AP level after the ganglion blocker caused hypotension and maintains it for a long time"
